Source: patent US12396458B2, “Fused ring substituted aromatic compound and preparation method therefor, herbicidal composition, and use thereof” (Qingdao Kingagroot Chemical Compound Co., Ltd., priority 2020, dated 2025)

Key:
Assay in all cases: Weeding effect in post-emergence stage (greenhouse pot test)
Format in all cases: in vivo
Capsella bursa-pastoris = conditions: 3 weeks after application, fresh weight control rate
From the text: (§1) The activity level criteria for plant damage (i.e., growth control rate) are as follows:
(§2) Level 5: growth control rate is above 85%; • Level 4: growth control rate is greater than or equal to 60% and less than 85%; • Level 3: growth control rate is greater than or equal to 40% and less than 60%; • Level 2: growth control rate is greater than or equal to 20% and less than 40%; • Level 1: growth control rate is greater than or equal to 5% and less than 20%; • Level 0: growth control rate is less than 5%.
(§3) The above growth control rates are fresh weight control rates.
(§4) Experiment on weeding effect in post-emergence stage:
(§5) Monocotyledonous and dicotyledonous weed seeds (Descurainia sophia, Capsella bursa-pastoris, Abutilon theophrasti, Galium aparine, Stellaria media, Lithospermum arvense, Rorippa indica, Alopecurus aequalis, Alopecurus japonicus, Eleusine indica, Beckmannia syzigachne, Sclerochloa dura, Phleum paniculatum, Veronica didyma Tenore, Bromus japonicus, Aegilops tauschii, Phalaris arundinacea, Amaranthus retrojlexus, Chenopodiaceae, Commelina communis, Sonchus arvensis, convolvulus arvensis, Cirsium setosum, Solanum nigrum, Acalypha australis, Digitaria sanguinalis, Echinochloa crusgalli, Setaria viridis, Setaria glauca, Leptochloa chinensis, Monochoria vaginalis, Sagittaria trifolia, Scirpus juncoides, Cyperus rotundus, Cyperus iria, Cyperus difformis, Fimbristylis, Portulaca oleracea, Xanthium sibiricum, Pharbitis nil, Conyza japonica, etc.) and major crop seeds (wheat, corn, rice, soybean, cotton, oilseed rape, millet, sorghum, potato, sesame, ricinus, etc.) were placed in plastic pots filled with soil, then covered with 0.5-2 cm of soil, allowed to grow in a good greenhouse environment. After 2 weeks of sowing, the test plants were treated in the 2-3 leaf stage. The tested compounds of the present invention were respectively dissolved in acetone, then added with Tween 80 and 1.5 liter/ha of emulsifiable concentrate of methyl oleate as synergist, diluted with a certain amount of water to obtain a solution with a certain concentration, and sprayed with a spray tower onto the plants. After the application, the plants were cultured for 3 weeks in the greenhouse, and then the experimental results of the weeding were counted. The doses of the used compounds were 500, 250, 125, 60, 15, 7.5 g a.i./ha, and the averages were obtained by repeating for three times.

Conyza japonica = conditions: post-emergence, 3 weeks after application, fresh weight control rate
From the text: as §1, §2, §3, §4, §5

Beckmannia syzigachne = conditions: 3 weeks after application, fresh weight control rate
From the text: as §1, §2, §3, §4, §5

Alopecurus japonicus = conditions: 3 weeks after application, fresh weight control rate
From the text: as §1, §2, §3, §4, §5

Compound	Activity level (growth control rate), Capsella bursa-pastoris (Capsella bursa-pastoris; dose 15 g a.i./ha)	Activity level (growth control rate), Conyza japonica (Conyza japonica; dose 15 g a.i./ha)	Activity level (growth control rate), Beckmannia syzigachne (Beckmannia syzigachne; dose 15 g a.i./ha)	Activity level (growth control rate), Alopecurus japonicus (Alopecurus japonicus; dose 15 g a.i./ha)	Activity level (growth control rate), Capsella bursa-pastoris (Capsella bursa-pastoris; dose 125 g a.i./ha)	Activity level (growth control rate), Conyza japonica (Conyza japonica; dose 125 g a.i./ha)	Activity level (growth control rate), Beckmannia syzigachne (Beckmannia syzigachne; dose 125 g a.i./ha)	Activity level (growth control rate), Alopecurus japonicus (Alopecurus japonicus; dose 125 g a.i./ha)
C=CCOC(=O)C12CCCC1C(c1cc(-n3c(=O)cc(C(F)(F)F)n(C)c3=O)c(F)cc1Cl)=NO2 (stereo not shown) [Compound 222]	5 (Level 5: growth control rate is above 85%)	4 (Level 4: growth control rate is greater than or equal to 60% and less than 85%)	5 (Level 5: growth control rate is above 85%)	5 (Level 5: growth control rate is above 85%)				
C#CCOC(=O)C12CCCC1C(c1cc(-n3c(=O)cc(C(F)(F)F)n(C)c3=O)c(F)cc1Cl)=NO2 (stereo not shown) [Compound 225]	5 (Level 5: growth control rate is above 85%)	4 (Level 4: growth control rate is greater than or equal to 60% and less than 85%)	5 (Level 5: growth control rate is above 85%)	5 (Level 5: growth control rate is above 85%)				
Cn1c(C(F)(F)F)cc(=O)n(-c2cc(C3=NOC4(C(=O)OCCF)CCCC34)c(Cl)cc2F)c1=O (stereo not shown) [Compound 231]	5 (Level 5: growth control rate is above 85%)	4 (Level 4: growth control rate is greater than or equal to 60% and less than 85%)	5 (Level 5: growth control rate is above 85%)	5 (Level 5: growth control rate is above 85%)				
COCCOC(=O)C12CCCC1C(c1cc(-n3c(=O)cc(C(F)(F)F)n(C)c3=O)c(F)cc1Cl)=NO2 (stereo not shown) [Compound 245]	5 (Level 5: growth control rate is above 85%)	4 (Level 4: growth control rate is greater than or equal to 60% and less than 85%)	5 (Level 5: growth control rate is above 85%)	5 (Level 5: growth control rate is above 85%)				
Cn1c(C(F)(F)F)cc(=O)n(-c2cc(C3=NOC4(C(=O)OCC5CCCO5)CCCC34)c(Cl)cc2F)c1=O (stereo not shown) [Compound 261]	5 (Level 5: growth control rate is above 85%)	4 (Level 4: growth control rate is greater than or equal to 60% and less than 85%)	5 (Level 5: growth control rate is above 85%)	5 (Level 5: growth control rate is above 85%)				
CC(C)=NOC(=O)C12CCCC1C(c1cc(-n3c(=O)cc(C(F)(F)F)n(C)c3=O)c(F)cc1Cl)=NO2 (stereo not shown) [Compound 278]	5 (Level 5: growth control rate is above 85%)	4 (Level 4: growth control rate is greater than or equal to 60% and less than 85%)	5 (Level 5: growth control rate is above 85%)	5 (Level 5: growth control rate is above 85%)				
Cc1cc(C)n(C(=O)C23CCCC2C(c2cc(-n4c(=O)cc(C(F)(F)F)n(C)c4=O)c(F)cc2Cl)=NO3)n1 (stereo not shown) [Compound 333]	4 (Level 4: growth control rate is greater than or equal to 60% and less than 85%)	4 (Level 4: growth control rate is greater than or equal to 60% and less than 85%)	4 (Level 4: growth control rate is greater than or equal to 60% and less than 85%)	4 (Level 4: growth control rate is greater than or equal to 60% and less than 85%)				
COC(=O)C12CCOC1C(c1cc(-n3c(=O)cc(C(F)(F)F)n(C)c3=O)c(F)cc1Cl)=NO2 (stereo not shown) [Compound 372]					5 (Level 5: growth control rate is above 85%)	4 (Level 4: growth control rate is greater than or equal to 60% and less than 85%)	4 (Level 4: growth control rate is greater than or equal to 60% and less than 85%)	4 (Level 4: growth control rate is greater than or equal to 60% and less than 85%)
Cn1c(C(F)(F)F)cc(=O)n(-c2cc(C3=NOC4(C(=O)OCCCl)CCCC34)c(Cl)cc2F)c1=O (stereo not shown) [Compound 424]	5 (Level 5: growth control rate is above 85%)	5 (Level 5: growth control rate is above 85%)	5 (Level 5: growth control rate is above 85%)	5 (Level 5: growth control rate is above 85%)				
CCOCOC(=O)C12CCCC1C(c1cc(-n3c(=O)cc(C(F)(F)F)n(C)c3=O)c(F)cc1Cl)=NO2 (stereo not shown) [Compound 425]	5 (Level 5: growth control rate is above 85%)	4 (Level 4: growth control rate is greater than or equal to 60% and less than 85%)	5 (Level 5: growth control rate is above 85%)	5 (Level 5: growth control rate is above 85%)				
Cn1c(C(F)(F)F)cc(=O)n(-c2cc(C3=NOC4(C(=O)Oc5ccccc5)CCCC34)c(Cl)cc2F)c1=O (stereo not shown) [Compound 426]	5 (Level 5: growth control rate is above 85%)	4 (Level 4: growth control rate is greater than or equal to 60% and less than 85%)	4 (Level 4: growth control rate is greater than or equal to 60% and less than 85%)	5 (Level 5: growth control rate is above 85%)				
Cn1c(C(F)(F)F)cc(=O)n(-c2cc(C3=NOC4(C(=O)N5CCCC5)CCCC34)c(Cl)cc2F)c1=O (stereo not shown) [Compound 427]	5 (Level 5: growth control rate is above 85%)	4 (Level 4: growth control rate is greater than or equal to 60% and less than 85%)	4 (Level 4: growth control rate is greater than or equal to 60% and less than 85%)	5 (Level 5: growth control rate is above 85%)				
COC(=O)C12CCC(F)C1C(c1cc(-n3c(=O)cc(C(F)(F)F)n(C)c3=O)c(F)cc1Cl)=NO2 (stereo not shown) [Compound 441]	5 (Level 5: growth control rate is above 85%)	4 (Level 4: growth control rate is greater than or equal to 60% and less than 85%)	4 (Level 4: growth control rate is greater than or equal to 60% and less than 85%)	4 (Level 4: growth control rate is greater than or equal to 60% and less than 85%)				
COC(=O)C12CCC(C)C1C(c1cc(-n3c(=O)cc(C(F)(F)F)n(C)c3=O)c(F)cc1Cl)=NO2 (stereo not shown) [Compound 443]	5 (Level 5: growth control rate is above 85%)	4 (Level 4: growth control rate is greater than or equal to 60% and less than 85%)	5 (Level 5: growth control rate is above 85%)	5 (Level 5: growth control rate is above 85%)				
CCOC(=O)C12CCC(=NOC)C1C(c1cc(-n3c(=O)cc(C(F)(F)F)n(C)c3=O)c(F)cc1Cl)=NO2 (stereo not shown) [Compound 451]	5 (Level 5: growth control rate is above 85%)	4 (Level 4: growth control rate is greater than or equal to 60% and less than 85%)	4 (Level 4: growth control rate is greater than or equal to 60% and less than 85%)	4 (Level 4: growth control rate is greater than or equal to 60% and less than 85%)				
CCOC(=O)C12ON=C(c3cc(-n4c(=O)cc(C(F)(F)F)n(C)c4=O)c(F)cc3Cl)C1CCC2Br (stereo not shown) [Compound 474]	5 (Level 5: growth control rate is above 85%)	4 (Level 4: growth control rate is greater than or equal to 60% and less than 85%)	4 (Level 4: growth control rate is greater than or equal to 60% and less than 85%)	4 (Level 4: growth control rate is greater than or equal to 60% and less than 85%)				
